Source: patent US6699860B2, “Di-substituted aminomethyl-chroman derivative beta-3 adrenoreceptor agonists” (Bayer Pharmaceuticals Corporation, priority 2000, dated 2004)

These compounds were tested against T1, human beta-3-adrenergic receptor (Homo sapiens, UniProt P13945) (assay: cAMP production (SPA) in CHO cells stably expressing human beta-3-adrenergic receptor, agonist activity). Details: cAMP production in CHO cells expressing human beta-3-adrenergic receptor; compounds binned (≦1 μM or >1 μM); read-out: Beta-3 Agonistic Activity, EC50 values.
T1 construct: Chinese hamster ovary (CHO) cells that stably express full-length human beta-3-adrenergic receptor; expressed in transfected cells
T1 sequence (P13945 whole entry): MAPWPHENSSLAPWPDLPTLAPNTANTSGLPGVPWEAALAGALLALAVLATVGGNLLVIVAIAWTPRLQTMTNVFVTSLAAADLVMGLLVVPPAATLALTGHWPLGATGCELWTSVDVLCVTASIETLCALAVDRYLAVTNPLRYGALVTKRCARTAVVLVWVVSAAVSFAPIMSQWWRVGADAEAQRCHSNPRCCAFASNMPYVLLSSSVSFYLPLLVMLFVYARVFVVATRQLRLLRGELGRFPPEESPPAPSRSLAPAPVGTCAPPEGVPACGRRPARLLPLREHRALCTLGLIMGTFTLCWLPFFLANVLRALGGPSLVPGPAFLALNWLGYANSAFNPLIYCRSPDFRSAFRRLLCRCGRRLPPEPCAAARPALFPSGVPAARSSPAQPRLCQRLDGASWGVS
Assay type: cell-based
Description: The cell line is grown in 90% F12 nutrient mixture (HAM), 10% fetal bovine serum, 100 units/ml penicillin G sodium, […] streptomycin sulfate, and 2 mM L-glutamine at 37° C. in 95% air and 5% CO2. The transfected cell line is maintained with G418 (800ug/ml).
To test agonist activity, cells are exposed to test compound and then assayed for cAMP production. […] Test compounds are assayed from 10 μM to 3 nM with 3-fold serial dilutions. The control agonist, isoproterenol (10 mM stock in 1.1 mM ascorbate), is assayed by 3-fold dilution beginning at 1 μM. Following a 30-minute incubation with the test compounds, the buffer/compound mixture is removed. […] The cAMP values are then plotted to ascertain the EC50 of each compound tested.

`CCc1ccc(SC[C@@H](O)CNC[C@H]2CCc3cc(-c4ccc(C(=O)O)cc4)ccc3O2)cc1` [Example 170] and `O=C(O)c1ccc(-c2ccc3c(c2)CC[C@H](CNC[C@H](O)CSc2ccc(F)cc2)O3)cc1` [Example 176] cannot be ordered by EC50: over 1000 nM for the first, over 1000 nM for the second.

`CC(C)c1cccc(C(C)C)c1OC[C@@H](O)CNC[C@H]1CCc2cc(-c3ccc(C(=O)O)cc3)ccc2O1` [Example 140, 4-[(2R)-2-({[(2S)-3-(2,6-diisopropylphenoxy)-2-hydroxypropyl]amino}methyl)-3,4-dihydro-2H-chromen-6-yl]benzoic acid] and `Cc1cc(C)c(OCC(O)CNC[C@H]2CCc3cc(-c4ccc(C(=O)O)cc4)ccc3O2)c(C)c1` (stereo partly drawn) [Example 222] cannot be ordered by EC50: over 1000 nM for the first, over 1000 nM for the second.

`O=C(O)c1ccc2cc(-c3ccc4c(c3)CC[C@H](CNC[C@H](O)COc3ccccc3)O4)ccc2c1` [Example 182] and `COC(=O)c1ccc2cc(-c3ccc4c(c3)CC[C@H](CNC[C@H](O)COc3ccccc3)O4)ccc2c1` [Example 103, methyl 6-[(2R)-2-({[(2S)-2-hydroxy-3-phenoxypropyl]amino}methyl)-3,4-dihydro-02H-chromen-6-yl]-2-naphthoate] cannot be ordered by EC50: at most 1000 nM for the first, at most 1000 nM for the second.

`O=C(O)c1ccc(-c2ccc3c(c2)CC[C@H](CNC[C@H](O)CSc2cccc(F)c2)O3)cc1` [Example 175] and `COc1cccc(SC[C@@H](O)CNC[C@H]2CCc3cc(-c4ccc(C(=O)O)cc4)ccc3O2)c1` [Example 178] cannot be ordered by EC50: over 1000 nM for the first, over 1000 nM for the second.

`CC(C)c1sc(-c2ccc3c(c2)CC[C@H](CNC[C@H](O)COc2ccccc2)O3)nc1C(=O)O` [Example 191] and `CC(C)c1nc(-c2ccc3c(c2)CC[C@H](CNC[C@H](O)COc2ccccc2)O3)sc1C(=O)O` [Example 190] cannot be ordered by EC50: at most 1000 nM for the first, at most 1000 nM for the second.

`O=C(O)c1ccc(-c2ccc3c(c2)CC[C@H](CNC[C@H](O)COc2ccccc2)O3)cc1` [Example 142, 4-[(2R)-2-({[(2S)-2-Hydroxy-3-phenoxyropyl]amino}methyl)-3,4-dihydro-2H-chromen-6-yl]benzoic acid] and `COC(=O)c1ccc(-c2ccc3c(c2)CC[C@H](CNC[C@H](O)COc2ccccc2)O3)cc1` [Example 84, Methyl 4-[(2R)-2-({[(2S)-2-hydroxy-3-phenoxypropyl]amino}methyl)-3,4-dihydro-2H-chromen-6-yl]benzoate] cannot be ordered by EC50: at most 1000 nM for the first, at most 1000 nM for the second.

`O=C(O)c1ccc(-c2ccc3c(c2)CC[C@H](CNC[C@H](O)COc2ccccc2)O3)cc1NC1CCC1` [Example 201] and `O=C(O)c1ccc(-c2ccc3c(c2)CC[C@H](CNC[C@H](O)COc2ccccc2)O3)cc1NC1CCCCC1` [Example 197] cannot be ordered by EC50: at most 1000 nM for the first, at most 1000 nM for the second.

`O=C(O)c1csc(-c2ccc3c(c2)CC[C@H](CNC[C@H](O)COc2ccccc2)O3)c1` [Example 186] and `O=C(O)c1cc(-c2ccc3c(c2)CC[C@H](CNC[C@H](O)COc2ccccc2)O3)cs1` [Example 183] cannot be ordered by EC50: at most 1000 nM for the first, at most 1000 nM for the second.

`COC(=O)c1ccc(-c2ccc3c(c2)CC[C@H](CNC[C@H](O)COc2cccc4[nH]c5ccccc5c24)O3)cc1` [Example 102] and `O=C(O)c1ccc(-c2ccc3c(c2)CC[C@H](CNC[C@H](O)COc2ccccc2Cl)O3)cc1` [Example 252] cannot be ordered by EC50: over 1000 nM for the first, at most 1000 nM for the second.

`CC(C)(C)c1ccc(-c2cc(-c3ccc4c(c3)CC[C@H](CNC[C@H](O)COc3ccccc3)O4)ccc2C(=O)O)cc1` [Example 220] and `O=C(O)c1ccc(-c2ccc3c(c2)CCC(CNC[C@H](O)COc2ccccc2)O3)cc1-c1ccccc1` (stereo in doubt) [Example 215, 5-[(2S)-2-({[(2S)-2-hydroxy-3-phenoxypropyl]amino}methyl)-3,4-dihydro-2H-chromen-6-yl]-1,1′-biphenyl-2-carboxylic acid] cannot be ordered by EC50: at most 1000 nM for the first, at most 1000 nM for the second.

`COC(=O)c1nc(-c2ccc3c(c2)CC[C@H](CNC[C@H](O)COc2ccccc2)O3)sc1-c1ccccc1` [Example 135] and `CCOC(=O)c1sc(-c2ccc3c(c2)CC[C@H](CNC[C@H](O)COc2ccccc2)O3)nc1-c1ccccc1` [Example 136] cannot be ordered by EC50: at most 1000 nM for the first, over 1000 nM for the second.

`NC(=O)c1cc2c(OCC(O)CNC[C@H]3CCc4cc(CCC(=O)O)ccc4O3)cccc2[nH]1` (stereo partly drawn) [Example 270] and `O=C(O)CCc1ccc2c(c1)CC[C@H](CNC[C@H](O)COc1ccccc1F)O2` [Example 265, 3-[(2R)-2-({[(2S)-3-(2-Fluorophenoxy)-2-hydroxypropyl]amino}methyl)-3,4-dihydro-2H-chromen-6-yl]propanoic acid] cannot be ordered by EC50: over 1000 nM for the first, at most 1000 nM for the second.

`CCOc1cc(-c2ccc3c(c2)CC[C@H](CNC[C@H](O)COc2ccccc2)O3)ccc1C(=O)O` [Example 207] and `CCCOc1cc(-c2ccc3c(c2)CC[C@H](CNC[C@H](O)COc2ccccc2)O3)ccc1C(=O)O` [Example 208] cannot be ordered by EC50: at most 1000 nM for the first, at most 1000 nM for the second.

`CC(C)Oc1cc(-c2ccc3c(c2)CC[C@H](CNC[C@H](O)COc2ccccc2)O3)ccc1C(=O)O` [Example 211] and `COc1cc(-c2ccc3c(c2)CCC(CNC[C@H](O)COc2ccccc2)O3)ccc1C(=O)O` (stereo in doubt) [Example 206, 4-[(2S)-2-({[(2S)-2-hydroxy-3-phenoxypropyl]amino}methyl)-3,4-dihydro-2H-chromen-6-yl]-2-methoxybenzoic acid] cannot be ordered by EC50: at most 1000 nM for the first, at most 1000 nM for the second.

`O=C(O)c1ccc(-c2ccc3c(c2)CC[C@H](CNCC(O)COc2ccc(F)cc2)O3)cc1` (stereo partly drawn) [Example 232] and `O=C(O)c1ccc(-c2ccc3c(c2)CC[C@H](CNC[C@H](O)COc2ccc(O)cc2)O3)cc1` [Example 163] cannot be ordered by EC50: at most 1000 nM for the first, at most 1000 nM for the second.

`O=C(O)CCc1ccc2c(c1)CC[C@H](CNC[C@H](O)COc1cccc(Cl)c1)O2` [Example 266] and `O=C(O)CCc1ccc2c(c1)CC[C@H](CNC[C@H](O)COc1ccc(F)cc1)O2` [Example 268] cannot be ordered by EC50: over 1000 nM for the first, at most 1000 nM for the second.

`COCCc1ccc(OC[C@@H](O)CNC[C@H]2CCc3cc(-c4ccc(C(=O)O)cc4)ccc3O2)cc1` [Example 139, 4-{(2R)-2-[({(2S)-2-hydroxy-3-[4-(2-methoxyethyl)phenoxy]propyl}amino)methyl]-3,4-dihydro-2H-chromen-6-yl}benzoic acid] and `O=C(O)c1ccc(-c2ccc3c(c2)CC[C@H](CNC[C@H](O)COc2ccccc2O)O3)cc1` [Example 164] cannot be ordered by EC50: at most 1000 nM for the first, at most 1000 nM for the second.

`O[C@@H](CNC[C@H]1CCc2cc(I)ccc2O1)COc1ccccc1` [Example 80, (2S)-1-({[(2R)-6-iodo-3,4-dihydro-2H-chromen-2-yl]methyl}amino)-3-phenoxy-2-propanol] and `COC(=O)c1cc(-c2ccc3c(c2)CC[C@H](CNC[C@H](O)COc2ccccc2)O3)cs1` [Example 133] cannot be ordered by EC50: at most 1000 nM for the first, at most 1000 nM for the second.

`Cc1c(-c2ccc3c(c2)CC[C@H](CNC[C@H](O)COc2ccccc2)O3)c(C(=O)O)nn1C` [Example 184] and `CCOC(=O)c1nn(C)c(C)c1-c1ccc2c(c1)CC[C@H](CNC[C@H](O)COc1ccccc1)O2` [Example 131] cannot be ordered by EC50: at most 1000 nM for the first, at most 1000 nM for the second.

`CC(C)CNc1cc(-c2ccc3c(c2)CC[C@H](CNC[C@H](O)COc2ccccc2)O3)ccc1C(=O)O` [Example 200] and `CCCCNc1cc(-c2ccc3c(c2)CC[C@H](CNC[C@H](O)COc2ccccc2)O3)ccc1C(=O)O` [Example 195, 2-(butylamino)-4-[(2R)-2-({[(2)-2-hydroxy-3-(phenyloxy)propyl]amino}methyl)-3,4-dihydro-2H-chromen-6-yl]benzoic acid] cannot be ordered by EC50: at most 1000 nM for the first, at most 1000 nM for the second.

`Nc1cc(-c2ccc3c(c2)CC[C@H](CNC[C@H](O)COc2ccccc2)O3)ccc1C(=O)O` [Example 198] and `O=C(O)c1ccc(-c2ccc3c(c2)CCC(CNC[C@H](O)COc2ccccc2)O3)cc1O` (stereo in doubt) [Example 213, 2-hydroxy-4-[(2S)-2-({[(2S)-2-hydroxy-3-phenoxypropyl]amino}methyl)-3,4-dihydro-2H-chromen-6-yl]benzoic acid] cannot be ordered by EC50: at most 1000 nM for the first, at most 1000 nM for the second.

`O=C(O)c1nc(-c2ccc3c(c2)CC[C@H](CNC[C@H](O)COc2ccccc2)O3)oc1-c1ccccc1` [Example 187] and `O=C(O)c1sc(-c2ccc3c(c2)CC[C@H](CNC[C@H](O)COc2ccccc2)O3)nc1-c1ccccc1` [Example 189] cannot be ordered by EC50: at most 1000 nM for the first, at most 1000 nM for the second.

`CCCCOc1cc(-c2ccc3c(c2)CC[C@H](CNC[C@H](O)COc2ccccc2)O3)ccc1C(=O)O` [Example 212] and `O=C(O)c1ccc(-c2ccc3c(c2)CC[C@H](CNC[C@H](O)COc2ccccc2)O3)cc1N1CCCCC1` [Example 202] cannot be ordered by EC50: at most 1000 nM for the first, at most 1000 nM for the second.

`O=C(O)c1ccc(-c2ccc3c(c2)CC[C@H](CNC[C@H](O)CSc2ccc(Cl)cc2)O3)cc1` [Example 173] and `O=C(O)c1ccc(-c2ccc3c(c2)CC[C@H](CNC[C@H](O)CSc2ccc(C(F)(F)F)cc2)O3)cc1` [Example 181] cannot be ordered by EC50: over 1000 nM for the first, over 1000 nM for the second.

`O=C(NC1CCCCC1)c1cc(-c2ccc3c(c2)CC[C@H](CNC[C@H](O)COc2ccccc2)O3)ccn1` [Example 96] and `COC(=O)c1cc(-c2ccc3c(c2)CC[C@H](CNC[C@H](O)COc2ccccc2)O3)cc2c1OCC2` [Example 130] cannot be ordered by EC50: over 1000 nM for the first, at most 1000 nM for the second.

`O=C(O)c1ccc(-c2ccc3c(c2)CC[C@H](CNCC(O)COc2ccccc2Cl)O3)cc1` (stereo partly drawn) [Example 234] and `O=C(O)c1ccc(-c2ccc3c(c2)CC[C@H](CNC[C@H](O)COc2ccccc2F)O3)cc1` [Example 253] cannot be ordered by EC50: at most 1000 nM for the first, at most 1000 nM for the second.

`O=C(O)c1ccc(-c2ccc3c(c2)CC[C@H](CNC[C@H](O)CSc2ccccc2F)O3)cc1` [Example 174] and `O=C(O)c1ccc(-c2ccc3c(c2)CC[C@H](CNC[C@H](O)CSc2cccc(C(F)(F)F)c2)O3)cc1` [Example 180] cannot be ordered by EC50: at most 1000 nM for the first, over 1000 nM for the second.
